Assay results from PubChem BioAssay AID179 (DTP/NCI, 2004).
The source made the active and inactive calls.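 The calls were made as follows: active = compounds giving half or more protection of infected cells from virus-caused growth loss, again on retest; inactive = the rest.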

System: CEM cells HIV-1 protection, formazan growth assay
Assay: NCI AIDS Antiviral Assay
Details: for IC50: measured here: growth of uninfected CEM cells
Procedure, shortened: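 Screen of anti-HIV-1 activity in human CEM cells using a formazan-based growth measurement at five drug concentrations. Hits with 50% or greater protection were repeated, and confirmation required reproducible complete protection.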

SMILES	EC50	IC50	outcome
COC(=O)C(C)(C)C(OP1(=S)N(C)CCN1C)=C(C)C	> 155 µM	> 155 µM	
CNS(=O)(=O)NNS(=O)(=O)c1ccc(F)cc1	> 631 µM	214 µM	
NNC(=O)CC(=O)N(C(=O)/C=C/c1ccccc1)c1ccc(Cl)cc1	> 200 µM	> 200 µM	
C=C1CC2(CCOc3ccccc32)OC1=O (centres undefined)	> 871 µM	4.37 µM	
O=C1NC(=O)C2(CC2)N1	> 200 µM	> 200 µM	
CC(=O)Nc1ccccc1/C=C/c1ccccn1	> 1050 µM	407 µM	
CN(C)C1C(=O)C(C(N)=O)=C(O)C2(O)C(=O)C3=C(O)c4c(O)cccc4C(C)(O)C3C(O)C12 (centres undefined)	> 263 µM	95.5 µM	
Clc1ccc(-n2cccc2)cc1	> 200 µM	> 200 µM	
CCOP(=O)(OCC)/C(C#N)=C/c1ccc(OC)cc1	> 316 µM	> 316 µM	
CC1=C(C(=O)Nc2c(C)cccc2C)C(c2ccccc2Cl)C(C(=O)Nc2c(C)cccc2C)=C(C)N1	> 355 µM	324 µM	
CCCC[N+](CCCC)(CCCC)C1=C([O-])C(F)(F)C1=O	> 200 µM	> 200 µM	
COC(=O)C(NC(=O)C(CC(=O)OC(C)(C)C)NC(=O)OC(C)(C)C)C(O)c1ccccc1 (centres undefined)	> 200 µM	> 200 µM	
O=C(Nc1ccc(Cl)c(C(F)(F)F)c1)C(=O)C(C(=O)/C=C/c1ccccc1)C1OC(=O)c2ccccc21 (centres undefined)	> 129 µM	20.9 µM	
Cc1cc(=O)[nH]c(CO)n1	> 200 µM	> 200 µM	
O=C(c1ccccc1)c1cc(N=Nc2ccc(/C=C/c3ccc(N=Nc4cc(C(=O)c5ccccc5)c5cccnc5c4O)cc3S(=O)(=O)O)c(S(=O)(=O)O)c2)c(O)c2ncccc12	> 38.9 µM	> 38.9 µM	
C(=C\c1ccnc2ccccc12)/c1cccnc1	> 155 µM	42.7 µM	
O=C(c1cccnc1)c1cc(-c2ccccn2)c(=O)n2ccccc12	> 200 µM	> 200 µM	
O=C(NC(=O)c1ccccc1[N+](=O)[O-])Nc1ccc(Oc2ncc(Cl)cn2)c([N+](=O)[O-])c1			inactive
O=C(NC1CCCCC1)NS(=O)(=O)c1ccc2c(c1)CCC2	> 200 µM	> 200 µM	
Nc1cccc2c1C1=NNC(=O)CC1C2 (centres undefined)			inactive
Cc1cc2ncn(C3CCCO3)c2cc1C (centres undefined)	> 200 µM	> 200 µM	
Cc1cc2c(cc1C)C(=O)/C(=C/c1ccccc1C(=O)O)C2	> 145 µM	45.7 µM	

SMILES	EC50	IC50	outcome
NC(CCCCCP(=O)(O)O)C(=O)O (centres undefined)	> 200 µM	> 200 µM	
Cc1ccc(C(=C2Sc3ccccc3S2)C(=C2Sc3ccccc3S2)c2ccc(C)s2)s1	> 200 µM	> 200 µM	
CCOC(=O)C(C(=O)OCC)C(c1ccc(OC)cc1)N1CCN(C(c2ccc(OC)cc2)C(C(=O)OCC)C(=O)OCC)CC1 (centres undefined)	> 100 µM	> 100 µM	
COC(=O)CSc1cc(Cl)c(C)cc1S(=O)(=O)Nc1n[nH]c(N)n1	> 200 µM	> 200 µM	
COc1ccc(CN2CCC/C=C/CC(Cl)(Cl)C2=O)cc1	> 110 µM	57.5 µM	
C/C(CC(=O)N(C(C)C)C(C)C)=N\NC(=O)c1ccncc1	> 61.7 µM	> 61.7 µM	
CC(=O)Oc1cc2c(c(=O)n1C)C(C)N(C)C2=O (centres undefined)	53.7 µM	309 µM	
COc1ccccc1/C=C/c1ccnc2ccccc12	> 200 µM	32.4 µM	
CCOC(=O)C1=NNC(C(=O)c2ccccc2)C1c1ccccc1 (centres undefined)	> 200 µM	2.19 µM	
CC1(C)CNC(=O)C2(C=NC(C)(C)CNC(=O)C3(C=N1)CCCO3)CCCO2 (centres undefined)	> 25.1 µM	> 25.1 µM	
CC[C@@]12CCC(=S)N(CCSc3ccccc3)[C@@H]1c1c(n(S(=O)(=O)c3ccc(OC)cc3)c3ccccc13)CC2	> 200 µM	> 200 µM	
C1=Cc2ccccc2C(c2ccccc2)=NC1	> 229 µM	145 µM	
C[C@H]1CCC/C=C/[C@@H]2C[C@H](O)C[C@H]2[C@H](O)/C=C/C(=O)O1	> 891 µM	0.282 µM	
COc1c2occc2c(Cl)c2ccc(=O)oc12	> 70.8 µM	43.7 µM	
O=C(Nc1ccccc1)Oc1ccccc1C1CCCCC1			inactive
CC1=CC(C)(C)Nc2ccc(OC(=O)/C=C(C)/C=C/C=C(C)/C=C/C3=C(C)CCCC3(C)C)cc21	> 200 µM	27.5 µM	
CC(C)(C)c1cc[n+](C[n+]2ccc(C(C)(C)C)cc2)cc1	> 200 µM	> 200 µM	
O=[N+]([O-])c1ccc(S(=O)(=O)N/N=C/c2ccccc2[N+](=O)[O-])cc1	> 102 µM	> 102 µM	
O=[N+]([O-])c1ccc2n[nH]nc2c1	> 200 µM	182 µM	
COc1ccc(C2C=C(c3ccc(C)cc3)N(c3ccc(OC)cc3[N+](=O)[O-])C3C(=O)OC(=O)C23)c(OC)c1 (centres undefined)	> 200 µM	31.6 µM	
CC1=NC(C)(C)[N+]([O-])=C1			inactive
COc1ccc([N+](=O)[O-])c2c(NCCCN(C)C)ccnc12	> 200 µM	4.47 µM	

SMILES	EC50	IC50	outcome
CCn1c2ccccc2c2ccc(C3C(C(=O)OC)=C(C)NC(C)=C3C(=O)OC)cc21			inactive
COc1cc2c(c(C)c1O)[C@H]1COc3ccccc3[C@H]1O2	> 87.1 µM	15.8 µM	
COc1ccc2cc3[n+](cc2c1OC)CCc1cc(O)c(O)cc1-3			inactive
CC(C)CCC[C@@H](C)C1CCC2[C@@H]3CCC4C[C@@H](CC/C=C/CC[C@H]5CC[C@@]6(C)C(CC[C@@H]7C6CC[C@@]6(C)C7CCC6[C@H](C)CCCC(C)C)C5)CC[C@]4(C)C3CC[C@@]21C (some centres undefined)	> 9.55 µM	> 9.55 µM	
c1ccc(-c2nc3nc4ccccc4nc3nc2-c2cccnc2)nc1	> 8.13 µM	> 8.13 µM	
O=[N+]([O-])c1ccc(N=Nc2ccc(N=C=S)cc2)cc1	> 200 µM	110 µM	
C[CH2][Ge]([CH2]C)([CH2]C)[O]C(=O)CCC(=O)[O][Ge]([CH2]C)([CH2]C)[CH2]C	> 214 µM	> 214 µM	
O=C1C2C3C=C4c5ccccc5N(c5ccccc5)C4(C2C(=O)N1c1ccccc1)C1C(=O)N(c2ccccc2)C(=O)C31 (centres undefined)			inactive
COc1cc(/C=C2\C=Cc3ccccc32)ccc1N(C)C	> 36.3 µM	24 µM	
Cc1ccc2c(c1)C1(SC(C)C(=O)N1c1ccc(I)cc1)C(=O)N2 (centres undefined)	> 200 µM	20 µM	
COC(=O)/C(=N\NC(N)=S)C(C#N)c1ccccc1 (centres undefined)	> 129 µM	> 129 µM	
CCOC(=O)CCC(NC(=O)c1ccc(NCc2ccc3nc(-c4ccccc4)c(Cl)nc3c2)cc1)C(=O)OCC (centres undefined)	> 4.79 µM	> 4.79 µM	
CN(C)C(=S)/N=c1\ssc(=S)n1Cc1ccco1			inactive
Cc1cc(C)c2c(c1)C(=O)c1c(O)ccc(O)c1C2=O			inactive
Nc1nc(Cl)cc(NCC2(CO)CC=CC2)n1	> 200 µM	> 200 µM	
COc1ccc(OCC(=O)O)c(C(=O)CCC(=O)O)c1			inactive
CCCNC(=O)Cn1c(C)cc2ccccc21	> 200 µM	> 200 µM	
C=C1C(OC(C)=O)[C@@]23CC[C@@H]4C(C)(C(=O)OC)CCCC4(C)[C@@H]2CC[C@@H]1C3 (some centres undefined)	> 200 µM	51.3 µM	
CC1=C(C(=O)Nc2ccc(Cl)c(Cl)c2)C(c2ccco2)C(C(=O)Nc2ccc(Cl)c(Cl)c2)=C(C)N1	> 33.9 µM	13.8 µM	
COc1cc(-c2ccc(N=Nc3cc(S(=O)(=O)O)c4cccc(S(=O)(=O)O)c4c3N)c(OC)c2)ccc1N=Nc1cc(S(=O)(=O)O)c2cccc(S(=O)(=O)O)c2c1N	14.1 µM	89.1 µM	
S=C1SCN2CCN3CSC(=S)N(CCN1C2)C3	> 81.3 µM	> 81.3 µM	
CN(C)/C=C/c1nnnn1-c1ccc(I)cc1	> 200 µM	33.1 µM	

SMILES	EC50	IC50	outcome
O=C1NNC2(C(=O)N1)c1ccccc1-c1ccccc12	> 200 µM	93.3 µM	
CC(C)(C)C(=O)C(C(=O)C(C)(C)C)C(=O)C(C)(C)C			inactive
Nn1c(-c2cccc(Cl)c2)nc2ccccc2c1=O			inactive
CCN(CC)C1Oc2cc3c(cc2C(c2cc(OC)c(O)c(OC)c2)C1C)OCO3 (centres undefined)	> 200 µM	1.29 µM	
NCCCNCCCCN(CCCN)/[N+]([O-])=N\O	> 6030 µM	145 µM	
C=C=CC(C)(O)c1ccc(-c2ccccc2)cc1 (centres undefined)	> 191 µM	45.7 µM	
CCOC(=O)C1C2CCC1CC(=NNc1ccc([N+](=O)[O-])cc1[N+](=O)[O-])C2 (centres undefined)	> 50.1 µM	19.5 µM	
N#CCCNCCN(CCN(C(=O)Nc1ccccc1)c1ccccc1)C(=O)Nc1ccccc1	> 200 µM	93.3 µM	
O=C1CCCSCCCC(=O)CCCSCCC1	> 34.7 µM	> 34.7 µM	
CC1N(N2C(=O)CS(=O)(=O)C2C)C(=O)CS1(=O)=O (centres undefined)	> 200 µM	> 200 µM	
O=c1cc(O)nc(CO)[nH]1	> 200 µM	> 200 µM	
COC(=O)c1c/c(=N\NC(=O)CC(=O)Nc2ccccc2Cl)c2ccccc2o1	166 µM	302 µM	
COc1cc(OC)cc(C(=O)CC(=O)c2cc(OC)cc(OC)c2)c1	> 20.9 µM	15.5 µM	
S=c1[nH]nc(CCCCCCCCc2n[nH]c(=S)o2)o1			inactive
CC1(C)C2CCC(=O)C1C(OCc1ccccc1)C2 (centres undefined)	> 200 µM	95.5 µM	
CCOC(=O)C1=C(C)NC(=O)NC1c1ccc(OC)cc1OC (centres undefined)	> 30.9 µM	> 30.9 µM	
O=C(OCC1OC(OC(=O)c2cc(O)c(O)c(OC(=O)c3cc(O)c(O)c(O)c3)c2)C(OC(=O)c2cc(O)c(O)c(OC(=O)c3cc(O)c(O)c(O)c3)c2)C(OC(=O)c2cc(O)c(O)c(OC(=O)c3cc(O)c(O)c(O)c3)c2)C1OC(=O)c1cc(O)c(O)c(OC(=O)c2cc(O)c(O)c(O)c2)c1)c1cc(O)c(O)c(OC(=O)c2cc(O)c(O)c(O)c2)c1 (centres undefined)	> 60.3 µM	6.76 µM	
CC(C)C(NC(=O)c1ccccc1SC(=O)CCCC[n+]1ccccc1)C(N)=O (centres undefined)	1.05 µM	8.71 µM	
CCOC(=O)C1(C(=O)OCC)COC(C)(C)OC1	> 200 µM	> 200 µM	
CCN1C(=O)C(=C/C=C/C=C2/N(C)c3ccccc3C2(C)C)C(=O)N(CC)C1=S	> 200 µM	18.6 µM	
